Assay [1] addresses T1, EcPPCS (phosphopantothenoylcysteine synthetase) (Escherichia coli, UniProt P0ABQ0). As to the kind of experiment: CD melting temperature shift. Type of assay: binding.
In assay [2] the target is T2, SaPanKII (pantothenate kinase, type II) (Staphylococcus aureus, UniProt Q8NVG0). Type of assay: biochemical.
Assay [3] concerns the target T2, SaPanKII (pantothenate kinase, type II). As to the kind of experiment: coupled spectrophotometric kinase assay with purified enzyme. The class given is biochemical.
For assay [4], the target named is T1, EcPPCS (phosphopantothenoylcysteine synthetase). As to the kind of experiment: pyrophosphate release, HPLC/LCMS of cytidylylation. The class given is biochemical.
For assay [5] the target is unchanged. Description: CD melting temperature shift. Type of assay: binding. The source holds these as a separate data set.
In assay [6] the target is T3, SaCoaBC (bifunctional CoaBC protein, phosphopantothenoylcysteine synthetase) (Staphylococcus aureus, UniProt Q2G268).
T3 sequence (Q2G268 1-399): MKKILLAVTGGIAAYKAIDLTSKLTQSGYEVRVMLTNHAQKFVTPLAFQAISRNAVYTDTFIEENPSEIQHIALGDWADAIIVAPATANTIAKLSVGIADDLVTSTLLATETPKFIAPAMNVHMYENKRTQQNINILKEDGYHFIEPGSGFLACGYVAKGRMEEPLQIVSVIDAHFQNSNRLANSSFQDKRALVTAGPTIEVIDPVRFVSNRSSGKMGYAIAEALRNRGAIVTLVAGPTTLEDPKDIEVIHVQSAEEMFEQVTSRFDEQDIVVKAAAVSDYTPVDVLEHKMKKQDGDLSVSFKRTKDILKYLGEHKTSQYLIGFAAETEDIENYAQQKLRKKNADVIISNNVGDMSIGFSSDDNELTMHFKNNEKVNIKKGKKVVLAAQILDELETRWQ
Description: progress curve inhibition analysis. The class given is biochemical.

The target in assay [7] is T1, EcPPCS (phosphopantothenoylcysteine synthetase). As to the kind of experiment: progress curves with Morrison fit, inhibitor formed in situ from P-CJ and CTP. The class given is biochemical.

Usually IC50 stands for the concentration at which inhibition is half-maximal. Read a high IC50 as a need for much substance. In general, Ki refers to a dissociation constant, usually derived from enzyme kinetics or from competition with a known ligand. A low value points to tighter binding.

Structures are written as SMILES.

T1 sequence (P0ABQ0 181-406): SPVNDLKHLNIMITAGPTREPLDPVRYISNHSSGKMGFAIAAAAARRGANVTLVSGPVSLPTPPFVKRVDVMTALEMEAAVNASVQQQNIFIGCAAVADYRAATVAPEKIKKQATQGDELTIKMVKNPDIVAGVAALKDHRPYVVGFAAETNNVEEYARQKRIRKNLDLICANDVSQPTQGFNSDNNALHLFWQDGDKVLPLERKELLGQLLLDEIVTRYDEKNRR
T2 sequence (Q8NVG0 whole entry): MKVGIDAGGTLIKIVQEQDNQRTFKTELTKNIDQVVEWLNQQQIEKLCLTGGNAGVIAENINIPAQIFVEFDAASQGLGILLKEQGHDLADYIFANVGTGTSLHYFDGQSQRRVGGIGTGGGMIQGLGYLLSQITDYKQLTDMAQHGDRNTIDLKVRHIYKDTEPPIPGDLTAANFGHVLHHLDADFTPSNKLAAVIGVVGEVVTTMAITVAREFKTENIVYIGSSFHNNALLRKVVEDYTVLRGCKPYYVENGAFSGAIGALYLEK

As to `Nc1ccn([C@@H]2O[C@H](COP(=O)(O)OP(=O)(O)OP(=O)(O)O)[C@@H](O)[C@H]2O)c(=O)n1` [CTP], in assay [1], the “CD melting temperature shift (47.7 to 49.7 °C)” value was 49.7 °C (Tm).
Turning to `CC(C)(CO)[C@@H](O)C(=O)N/C=C/C(=O)O` [compound 1, CJ-15,801], in assay [2], the “HPLC of phosphorylation and coupled spectrophotometric kinase assay with purifie” value is 13.8±4.2 mM^−1.s^−1 (kcat/Km).
For the molecule `CC(C)(CO)[C@@H](O)C(=O)NCCC(=O)O` [compound 2, pantothenic acid], the “coupled spectrophotometric kinase assay with purified enzyme” value in assay [3] is 30.2±8.7 mM^−1.s^−1 (kcat/Km).
Molecule `CC(C)(COP(=O)(O)O)[C@@H](O)C(=O)N/C=C/C(=O)O` [compound 13, P-CJ] showed an IC50 in assay [4] of 2660 ± 160 nM.
Regarding `CC(C)(COP(=O)(O)O)[C@@H](O)C(=O)NCCC(=O)OP(=O)(O)OC[C@H]1O[C@@H](n2ccc(N)nc2=O)[C@H](O)[C@@H]1O` [compound 14, P-Pan-CMP], the “CD melting temperature shift (47.7 to 54.3 °C), formed in situ from P-Pan and CT” value in assay [5] was 54.3 °C (Tm).
On to `CC(C)(COP(=O)(O)O)[C@@H](O)C(=O)N/C=C/C(=O)OP(=O)(O)OC[C@H]1O[C@@H](n2ccc(N)nc2=O)[C@H](O)[C@@H]1O` [compound 16, P-CJ-CMP], for which the Ki in assay [6] was 13 nM; in assay [7], 164 nM.

For the origin of these results see article PMC3361698 (Chemistry & biology, 2012).
